Reference: patent publication US9656981B2, “Peripherally-acting cannabinoid receptor agonists for chronic pain” (The Regents of the University of California, priority 2012, dated 2017)
Where two headings read alike, the source gives them in different places.

Key:
[1] = system: CFA-induced mechanical allodynia; assay: CFA chronic inflammation, mechanical allodynia; format: in vivo, rat; conditions: systemic injection
Protocol: (§1) Rats are placed in a plastic-walled cage (10×20×13 cm) with a metal mesh floor (0.6×0.6 cm holes) and allowed to acclimate for 10 min. The amount of pressure (g) needed to evoke a hindpaw withdrawal response is measured 4 times on each paw separated by 30-s intervals using a von Frey-type digital meter (Model 1601C, IITC Instr.). Results of 4 tests/session are averaged for each paw.
Compounds were tested in a well-established model of chronic inflammation. In this model, unilateral intraplantar injection of complete Freund's adjuvant (CFA) leads to long-lasting symptoms of mechanical allodynia and thermal hyperalgesia of the affected hindpaw, which is alleviated by local, […] administration of CB1R ligands^125, 155. […] This is consistent with the higher CB1R affinity of our novel compound 13339-145-35 (Compound 9, see Table 1) compared with the AstraZeneca AZ11713908 compound^125.

[2] = system: CFA-induced heat hyperalgesia; assay: CFA chronic inflammation, heat hyperalgesia (Hargreaves); format: in vivo, rat; conditions: systemic injection
Protocol: The Hargreaves method was used to assess paw-withdrawal latency to a thermal nociceptive stimulus^175. Rats were acclimated (10 min) within Plexiglas enclosures (10×20×20 cm) on a clear glass plate preheated to 30° C. A radiant heat source (adjustable infrared lamp) and a timer were used to measure paw withdrawal latency (Model 390, IITC Instruments). Each paw was tested 4 times at 30% maximal intensity allowing 5 min between each test. […] Results of 4 tests were averaged for each paw for that session.

CB1R = CB1R (Homo sapiens, UniProt P21554); assay: CB1R radioligand displacement binding assay (CP55940 radioligand)
Protocol: Heterologous competition binding assays were performed to calculate receptor affinities. Unlabeled SR141716 or SR144528 were used as appropriate controls for non-specific binding (NSB) in the assay. Calculation of the equilibrium dissociation constant (Ki) was performed using the Cheng-Prusoff equation.

rats [3] = assay: Rotarod test of the tetrad; format: in vivo, rat
Protocol: Rats were tested for motor function and the ataxic effects of novel drugs as described previously^151-153. To determine drug effects on motor coordination, rats are trained 72 h before the test (3 sessions 24 h apart) to remain for at least 180 s on a rotarod revolving at an acceleration of 4-40 revs over 5 min). Rats are tested immediately before vehicle or drug injections and tested again at 2, 6, 24 and 48 hrs after injection. The time for which the rats are able to remain on the rotarod is recorded up to a cut-off of 5 min.

rats [4] = assay: Catalepsy (ring) test of the tetrad; format: in vivo, rat
Protocol: Catalepsy (ring) test. Catalepsy was determined with a ring immobility test^154, modified for rats^139, 153. Rats are placed with their forepaws on a horizontal metal ring (12 cm diameter) at a height that allows their hindpaws to just touch the bench surface. Immobility is recorded as the time for the rat to move off the ring with a 100 s cutoff. Rats are tested before vehicle/drug injections and again at various times after injection.

CB2R = CB2R (Homo sapiens, UniProt P34972); assay: CB2R radioligand displacement binding assay (CP55940 radioligand)
Protocol: Detailed radioligand displacement assays (using the well-characterized CBR agonist […] as the radioligand) were conducted to determine the affinity (Ki) of the test compounds for CB1R and CB2R as has been previously described by our group^112,113. Heterologous competition binding assays were performed to calculate receptor affinities. Unlabeled SR141716 or SR144528 were used as appropriate controls for non-specific binding (NSB) in the assay. Calculation of the equilibrium dissociation constant (Ki) was performed using the Cheng-Prusoff equation.

human CB1R (hCB1R) = human CB1R (hCB1R) (Homo sapiens, UniProt P21554); assay: human CB1R (hCB1R) calcium flux assay; format: cell-based; conditions: Table 1; read-out: Ca Flux % Emax
Source text: Compounds were first screened for: a) CB1R and CB2R binding, b) CB1R agonist activity using the human CB1R (hCB1R) calcium flux assay, and c) BBB permeability using the Madin-Darby canine kidney (MDCK-MDR1) cell line assay.
The calcium 3 dye assays were run according to manufacturer's specifications (http://www.moleculardevices.com/Products/Assay-Kits/GPCRs/FLIPR-Calcium.html) and as reported in our previous publications^112,113. Briefly, wells of black clear-bottom 96-well tissue culture-treated plates are seeded with 20,000 cells the afternoon before assay. The day of assay, the cells are incubated with the Ca^2+ indicator dye for 1 hr @ 37° C. For antagonist assays, the test compound is preincubated with the cells during the last 10 min of the dye incubation. Basal or unstimulated fluorescence intensity is recorded in the FlexStation @ 37° C. for 13 sec followed by the addition of test compound or CP 55,940 (depending on the assay endpoint). Fluorescence intensity is recorded for an additional 47 sec. The effect of test compound in each well is determined by subtracting the minimum from the maximum fluorescence during the 47-sec recording period.

rats [5] = assay: Tail-flick test of the tetrad; format: in vivo, rat; conditions: 0.3 mg/kg, intraperitoneal
Source text: A modified Hargreaves apparatus (Model 390, IITC Instr.) is used to measure tail-flick latency (TFL). Radiant heat is directed to a point 3 cm from the tail tip and the TFL observed and timed with a photo cell counter. The intensity of the radiant heat is adjusted for a baseline TFL of approximately 5-7 seconds for naïve rats, with a 25 s cutoff set to avoid tissue damage (see FIG. 3).

[6] = system: sciatic nerve entrapment (SNE) neuropathy; assay: SNE neuropathy, mechanical allodynia (von Frey); format: in vivo, rat; conditions: 0.3 mg/kg; for effect on SNE-induced mechanical allodynia (ipsilateral hindpaw withdrawal thresholds): systemic injection
Protocol: The effectiveness of CBR agonists was tested for alleviating the painful symptoms of neuropathy induced by unilateral sciatic nerve entrapment (SNE)^131. The peripheral neuropathy induced by SNE is highly comparative to that of chronic constriction injury (CCI), which uses chromic gut suture materials instead of polyethylene cuffs^132. […] This increased excitability is at least in part attributable to injury-induced post-transcriptional transport of the voltage-gated sodium channel 1.8 (NaV1.8) mRNA, axonal accumulation of NaV1.8 mRNA, and its local protein translation leading to the increased NaV1.8 functional expression in injured nerve^136. The hyperexcitability and ectopic burst discharge of primary sensory neurons are widely considered to be the major contributors to pain symptomatology of peripheral neuropathy models. The SNE-induced mechanical allodynia effectively models the most common complaint of human neuropathy patients of dynamic mechanical allodynia. Behavioral measurements of mechanical sensitivity were conducted before and after induction of SNE as follows:
as §1

rats [7] = assay: Hypothermia test of the tetrad; format: in vivo, rat
Protocol: Rats are acclimated to a plastic restrainer apparatus (Model RTV-180 Braintree Scientific Inc.) on the day of testing by placing them in the restrainer twice for 5 min separated by 20 min. Baseline core temperature is taken before treatment, and the rectal temperature is measured again at various times after injection of the CB1R ligands.

Plasma stability assay = format: in vitro ADME; conditions: rat plasma, 10 μM
Protocol: Compounds are incubated at 10 μM in rat plasma at 37° C. A solution of each compound is prepared in ethanol at a concentration of 1 mM. A 2.5 μL volume of the 1 mM solution is added to 247.5 μL of rat plasma (male Sprague Dawley) in a glass test tube in a 37° C. water bath. Samples (50 μL) are removed at 0, 30 and 60 min and immediately extracted with 3 volumes (150 μL) of methanol. Samples are centrifuged (2500 rpm for 10 min at 4° C.) to pellet protein and supernatants transferred to LC/MS vials for analysis. Samples are stored at −80° C. prior to analysis.

[8] = S9 fraction stability assay; format: in vitro ADME; conditions: rat liver S9, 10 μM
Protocol: Compounds are incubated at 10 μM in rat (male Sprague Dawley) liver S9 at 37° C. Each compound is prepared in ethanol at a concentration of 1 mM. An assay mixture containing S9 (1 mg protein/mL final concentration) and an NADPH regenerating system (NADP [1 mM final], glucose 6-phosphate [5 mM final] and glucose 6-phosphate dehydrogenase [1 U/mL final]) in a buffer consisting of 50 mM KPO4 phosphate buffer, pH 7.4 with 3 mM MgCl2 is prepared and preincubated at 37° C. for 5 min. A 10 μL volume of the 1 mM solution is added to 990 μL of assay mixture in a glass test tube @ 37° C. to initiate the assay. Samples (50 μL) are removed at 0, 15, 30, 60 and 120 min and immediately extracted with 3 volumes (150 μL) of methanol, centrifuged to pellet protein and supernatants transferred to LC/MS vials for analysis.

rats [9] = assay: Tetrad assays overall (CNS-mediated side effects); format: in vivo, rat; conditions: doses effective against neuropathy symptoms, i.p.
Source text: The CNS-mediated psychotropic actions of CB1R ligands represent their most troubling side effects. The cannabinoid agonists such as Δ9-THC or anandamide produce a complex pattern of behavioral effects which are unique to this class of compounds: at low doses a mixture of stimulatory and depressant effects is observed, while at higher doses central depression predominates^137,138. The tetrad of tests which is classically predictive of cannabinoid receptor activation includes: catalepsy, motor performance, hypothermia, and analgesia tests^139-141. Effects observed in all four tests have been thought to be mediated by the activation of central CBRs, but it is now well established that peripheral CBRs make a major contribution to the analgesic effects of cannabinoids^142-144. The catalepsy and motor deficits induced by CB1R ligands are likely produced by their action on CB1Rs within the basal ganglia and cerebellum, while hypothermia is thought to be mediated mainly through hypothalamic and brainstem CB1Rs^137, 145-150. […] Therefore, “tetrad” tests were used to determine whether the novel CB1R ligands have antinociceptive effects and side-effect profile consistent with the activation of central CB1Rs. […]

[10] = Table 1, CP55940 radioligand, read-out: CB1_KI_CP
[11] = Table 1, CP55940 radioligand, read-out: CB2_KI_CP

Chain of human CB1R (hCB1R) (P21554 whole entry): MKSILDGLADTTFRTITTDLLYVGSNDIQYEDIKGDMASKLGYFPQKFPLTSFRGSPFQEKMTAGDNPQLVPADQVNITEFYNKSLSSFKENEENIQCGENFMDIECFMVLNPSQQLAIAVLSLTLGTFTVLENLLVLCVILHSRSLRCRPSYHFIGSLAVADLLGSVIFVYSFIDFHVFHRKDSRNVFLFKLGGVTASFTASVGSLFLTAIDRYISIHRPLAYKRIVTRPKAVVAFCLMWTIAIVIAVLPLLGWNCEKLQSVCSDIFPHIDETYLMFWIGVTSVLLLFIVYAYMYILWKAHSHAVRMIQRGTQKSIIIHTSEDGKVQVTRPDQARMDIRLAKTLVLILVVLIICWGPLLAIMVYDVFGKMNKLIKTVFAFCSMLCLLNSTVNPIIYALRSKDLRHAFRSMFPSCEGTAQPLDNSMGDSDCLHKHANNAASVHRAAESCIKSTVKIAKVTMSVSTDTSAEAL
Chain of CB1R (P21554 whole entry): as above
Chain of CB2R (P34972 whole entry): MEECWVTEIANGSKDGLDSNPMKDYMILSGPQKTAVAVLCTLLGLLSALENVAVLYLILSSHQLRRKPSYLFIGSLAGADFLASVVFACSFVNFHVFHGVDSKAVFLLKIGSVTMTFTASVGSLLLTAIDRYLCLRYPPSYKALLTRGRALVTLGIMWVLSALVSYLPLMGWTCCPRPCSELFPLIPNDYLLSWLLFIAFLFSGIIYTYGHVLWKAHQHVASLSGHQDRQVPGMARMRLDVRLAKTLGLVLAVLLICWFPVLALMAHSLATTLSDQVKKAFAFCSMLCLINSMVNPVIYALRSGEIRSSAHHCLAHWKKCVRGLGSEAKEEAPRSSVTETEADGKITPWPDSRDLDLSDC

SMILES | Ki (CB1R; [10]) [nM] | Rotarod % change from pre-drug (0.3 mg/kg) at 2-3 hr (rats [3]) [%] | Catalepsy % change from pre-drug (0.3 mg/kg) at 1-3 hrs (rats [4]) [%] | Emax (human CB1R (hCB1R)) [%] | effect on SNE-induced mechanical allodynia (ipsilateral hindpaw withdrawal thresholds) [6] | SNE Neuropath Assay-% return to pre-drug (0.3 mg/kg) contralateal threshold at 2-3 h [6] [%] | Hypothermia % change from predrug (0.3 mg/kg) at 2-3 hr (rats [7]) [%] | Ki (CB2R; [11]) [nM] | S9% remaining @ xy min ([8]; 30 min) | other results
COc1ccc(/C=C2\C=C(CCN3CCOCC3)c3ccccc32)c2ccccc12 [Compound 10, 4-{2-[(1E)-2-[(4-methoxy-naphthalen-1-yl)methylidene]-1H-inden-3-yl]ethyl} morpholine] | 2.43 | 0 | 0 | 114 | anti-allodynic effects | 103.2 | 0 |  |  | effect on CFA-induced mechanical allodynia [1]: relatively small effect; effect on CFA-induced heat hyperalgesia [2]: robust relief; Ki (CB1R): 2.4 nM; Ki (CB2R): 4.17 nM; effect in the tail-flick assay (rats [5]): small, but significant effects; effect in the hypothermia assay (rats [7]; 0.3 mg/kg, intraperitoneal): small difference
C1=C(CCN2CCOCC2)c2ccccc2/C1=C/c1cccc2ccccc12 [Compound 11, 4-{2-[(1E)-1-(naphthalen-1-ylmethylidene)-1H-inden-3-yl]ethyl} morpholine] |  | 0 | 0 | 103 | anti-allodynic effects | 37.8 | 0 | 5.62 | 35 @ 30% | Ki (CB1R; read-out: CB1R binding affinity (Ki)): 4.69 nM; effect in the rotarod assay (rats [3]; 0.3 mg/kg, intraperitoneal): complete lack of effects; effect in the catalepsy assay (rats [4]; 0.3 mg/kg, intraperitoneal): complete lack of effects; Plasma % remaining @ xy min (Plasma stability assay; 30 min): 95 @ 30%; effect on contralateral hindpaw withdrawal thresholds ([6]; hindpaw contralateral to SNE): Neither ENMI nor 13339-135-25 had any significant effect
CCCCCn1cc(C(=O)c2cccc3ccccc23)c2cccc(F)c21 [Compound 65, 7-fluoro-3-(naphthalene-1-carbonyl)-1-pentyl-1H-indole] | 3.62 | 0 | 0 | 79 |  | 18.6 | 0 | 2.7 | ~58% | Plasma % remaining @ xy min (Plasma stability assay; 60 min): 97 @ 60%; S9% remaining @ xy min ([8]; 60 min): 50%; S9% remaining @ xy min ([8]; 120 min): 36%
CCCCCCC(C)(C)c1cc(O)c2c(c1)OC(C)(C)[C@@H]1CC=C(CO)C[C@@H]21 [HU-210] |  |  |  |  |  |  |  |  |  | CNS side effects in the tetrad assays (rats [9]): potent CNS side effects
